The source of these data is ChEMBL document CHEMBL1127565, “Identification of two hydrophobic patches in the active-site cavity of human carbonic anhydrase II by solution-phase and solid-state studies and their use in the development of tight-binding inhibitors” (J Med Chem, 1994).

One may read the Kd as a measure of binding affinity in units of concentration. A low value points to tighter binding.

The assay concerns the target Carbonic anhydrase 2 (Homo sapiens, UniProt P00918).
Description: Dissociation constant against human Carbonic anhydrase II (HCA II)
In the case of `CCCCc1ccc(COC(=O)CNC(=O)CNC(=O)CNC(=O)c2ccc(S(N)(=O)=O)cc2)cc1`, binding was characterised by a dissociation constant (Kd) of 53 nM.
Next, `NS(=O)(=O)c1ccc(C(=O)NC(=O)c2ccco2)cc1`: 5.6 nM.
Next, `NS(=O)(=O)c1ccc(C(=O)N[C@@H](Cc2ccccc2)C(=O)NCC(=O)NCC(=O)OCc2ccccc2)cc1`: 5.3 nM.
Then `NS(=O)(=O)c1ccc(C(=O)N[C@@H](Cc2ccccc2)C(=O)NCC(=O)NCC(=O)O)cc1`, with 21 nM; and `NS(=O)(=O)c1ccc(C(=O)NCc2cccc3ccccc23)cc1`, with 0.6 nM; and `CCCCCCCCNC(=O)c1ccc(S(N)(=O)=O)cc1`, with 2.5 nM.
Turning to `NS(=O)(=O)c1ccc(C(=O)NCc2ccc(F)c(F)c2F)cc1`, binding was characterised by a dissociation constant (Kd) of 2.3 nM.
Next, `NS(=O)(=O)c1ccc(C(=O)NCc2ccc([N+](=O)[O-])cc2)cc1`: 2 nM; `NS(=O)(=O)c1ccc(C(=O)NCc2cccnc2)cc1`: 4 nM; `CNC(=O)c1ccc(S(N)(=O)=O)cc1`: 150 nM.
Next, `NS(=O)(=O)c1ccc(C(=O)NCC(=O)NCC(=O)OCc2ccccc2)cc1`: 71 nM; `NS(=O)(=O)c1ccc(C(=O)NCSc2ccccc2)cc1`: 1.7 nM; `NS(=O)(=O)c1ccc(C(=O)NCc2ccncc2)cc1`: 1.4 nM.
Then `NC(=O)c1ccc(S(N)(=O)=O)cc1`, with 120 nM; and `NS(=O)(=O)c1ccc(C(=O)NCC23CC4CC(CC(C4)C2)C3)cc1`, with 2.1 nM.
The compound `NS(=O)(=O)c1ccc(C(=O)NCC(F)(F)C(F)(F)C(F)(F)C(F)(F)C(F)(F)C(F)(F)C(F)(F)F)cc1` came in with a Kd of 0.3 nM.
Then `CN(C)c1ccc(CNC(=O)c2ccc(S(N)(=O)=O)cc2)cc1`, with 1.4 nM; and `NS(=O)(=O)c1ccc(C(=O)NCC2CCCCC2)cc1`, with 1.1 nM; and `NS(=O)(=O)c1ccc(C(=O)N[C@H](Cc2ccccc2)C(=O)NCC(=O)NCC(=O)OCc2ccccc2)cc1`, with 36 nM.
Then `NS(=O)(=O)c1ccc(C(=O)NCC(=O)NCC(=O)NCC(=O)NCC(=O)OCc2ccccc2)cc1`, with 210 nM.
Next, `Cc1ccccc1CNC(=O)c1ccc(S(N)(=O)=O)cc1`: 2.2 nM; `NS(=O)(=O)c1ccc(C(=O)N[C@H](C(=O)NCC(=O)NCC(=O)OCc2ccccc2)c2ccccc2)cc1`: 0.9 nM.
Compound `NS(=O)(=O)c1ccc(C(=O)NCC(=O)NCC(=O)NCC(=O)OCc2ccccc2)cc1` came in with a Kd of 75 nM.
Then `NS(=O)(=O)c1ccc(C(=O)NCc2ccccn2)cc1`, with 4.3 nM.
